The subject of one assay is mechanical allodynia. Nature of the assay: Sciatic nerve ligation model, mechanical allodynia. Type of assay: in vivo, rats. As for the experimental part:
Just prior to surgery, rats are treated subcutaneously with 0.1 to 0.5 mg/kg of the long acting opiate buprenorphine. Rats are then anesthetized with pentobarbital and the depth of anesthesia monitored by their response to a tail pinch and observation of the depth of respiration. Sterile technique was used throughout the surgery.
The upper thigh of each rat was shaved and wiped off with ethanol and betadine. A small incision was made in the skin and through the underlying muscle of the upper thigh until the sciatic nerve was exposed. The nerve was then separated from the surrounding connective tissue and slightly elevated by a pair of fine, curved forceps. Approximately ⅓ to ½ of the nerve was then tied off by passing a needle and nylon suture (7.0) through the nerve. The muscle and skin incision was then closed sutured separately with 5.0 suture and the animals were kept warm by placing on a thermostatically controlled heat blanket until they have recovered from the anesthesia. This procedure was conducted on the right side (ipsilateral) while a sham surgery was performed on the left hind leg (contralateral). The latter involves a similar procedure with the exception that the sciatic nerve on this side was only exposed and not ligated. Twelve hours post surgery, a second dose of buprenorphine was administered to minimize any discomfort from the surgical procedure. Rats were closely monitored daily for the development of infection or untoward effects of the surgery.
After an appropriate time for recovery (e.g., 7-14 days) the animals were tested for the development of mechanical allodynia (pain response to a non-noxious stimulus). For this study, the animals placed in a bottomless plexiglass box placed on a wire mesh (¼″) platform. After a 30-60 minute acclimation period, a baseline mechanical sensitivity was determined. […] This procedure was repeated until a 50% threshold for withdrawal could be determined.

In assay [1] the test system is formalin-induced paw licking. The assay can be described thus: Mouse formalin test. Type of assay: in vivo. Here is the method: An injection of 0.5% formalin is made into the planter region of a mouse right hind paw. This elicits a distinct biphasic behavioral profile characterized by the mouse licking the affected paw. Immediately following the injection the mouse licks the paw for about 10 minutes. This is phase 1 (acute) and is followed by a brief latent period where there is little behavioral activity. A more prolonged period of about 20 to 30 minutes of paw licking ensues which constitutes phase 2 (inflammatory).
Prior to the administration of the active peptide, drug or vehicle each mouse undergoes a 15-minute conditioning period in one of several 6″ tall plexiglass observation tubes (4″ diameter) that are placed in front of a mirror. […] One hour after treatment, formalin was injected sub-dermally (20 μl; 27 gauge needle) into the plantar surface of the right hind foot. The bevel of the needle is placed facing down toward the skin surface. Following the injection of the formalin each animal is observed for first 2 minutes of each 5 minute epoch for a total of 45 minutes. The cumulative length of licking for each 2 minute time period was measured. An animal receiving the requisite volume of vehicle was alternated with each mouse given GAL-BBB2, Gal 1-16, or gabapentin. Animals were euthanized following the conclusion of the experiment.
Area under the curve (AUC) determination was made using the GraphPad Prism Version 3.03. Total AUC is calculated for both the test and control groups for both the acute and inflammatory phases. The AUC for individual animals for each phase is also calculated and converted to percentage of total AUC of control. The average percentages and SEM for both the drug treated and control were calculated and tested for significant difference.

A further assay relates to 6 Hz limbic seizures. Nature of the assay: 6 Hz limbic (psychomotor) seizure test. It is filed as in vivo, CF-1 mice. The text has this:
Mice not displaying limbic seizures were considered protected.

For assay [2], the system named is clonic (s.c. Metrazol) seizures. The assay can be described thus: s.c. Metrazol seizure test. It is filed as in vivo, mice. Conditions: 4 mg/kg i.p., tested one hour later.
Description: Mice will be placed into individual plexiglas observation boxes and observed for 30 minutes for the presence of a minimal clonic seizure. Mice not displaying clonic seizure activity will be considered protected.
In assay [3] the test system is tonic-extension (maximal electroshock) seizures. Nature of the assay: Maximal electroshock seizure test. It is filed as in vivo, mice. The conditions noted are these: 4 mg/kg i.p., tested one hour later. For orientation: In the maximal electroshock model the usual endpoint is tonic extension of the hind limbs.
Excerpt: Abolition of the hindleg tonic extensor component of the seizure is used as the endpoint.
A further assay concerns sound-induced seizures. The assay can be described thus: Frings audiogenic seizure-susceptible mouse model. Type of assay: in vivo. As for the experimental part:
The two modified galanin analogs (GAL-BBB1 and GAL-BBB2) were administered i.p. to a group of Frings audiogenic seizure susceptible mice in a dose of 4 mg/kg. At various times after administration (i.e., 15, 30, 60, 120, and 240 min) each mouse was placed into a cylindrical test chamber fitted with an audio transducer and challenged with a high-intensity sound stimulus (110 dB, 11 KHz for 20 sec). Animals not displaying tonic hind-limb extension were considered protected. […] In a subsequent study, anticonvulsant efficacy was quantitated at the time to peak effect (i.e., 1 h) in a dose-response study.
The ability of individual modified analogs to prevent seizures induced by sound in the AGS-susceptible Frings mouse model can be assessed at the time of peak effect (White et al., 1992). For this test, individual mice are placed into a plexiglass cylinder (diameter, 15 cm; height, 18 cm) fitted with an audio transducer (Model AS-ZC; FET Research and Development, Salt Lake City, Utah), and exposed to a sound stimulus of 110 decibels (11 KHz) delivered for 20 seconds. Sound-induced seizures are characterized by wild running followed by loss of righting reflex with forelimb and hindlimb tonic extension. Mice not displaying hindlimb tonic extension are considered protected.
At various times after administration (i.e., 15, 30, 60, 120, and 240 min) each mouse was placed into a cylindrical test chamber fitted with an audio transducer and challenged with a high-intensity sound stimulus (110 dB, 11 KHz for 20 sec).

Entries after “also recorded” stand apart in the source; their conditions may differ. A value given as a limit tells only on which side of the number the result lay.

“Sar-Trp-Thr-Leu-Asn-Ser-Ala-Gly-Tyr-Leu-Leu-Gly-Pro-Lys-Lys-(Lys-palm)-Lys-NH2 [NAX 5055]”: the “potency compared with morphine” value in the assay on mechanical allodynia (2 mg/kg i.p. vs 2 mg/kg morphine) is “equi-potent”. The “potency compared with gabapentin” value in the assay with mechanical allodynia (2 mg/kg i.p. vs 40 mg/kg gabapentin) was “several fold more potent”. The “threshold for mechanical allodynia” value with mechanical allodynia (2 mg/kg i.p., 30 min to 6 h) is reported as “time-dependent increase”. Also, the “effect of 5 mg/kg compared with 10 mg/kg gabapentin” value in assay [1] (5 mg/kg i.p.) is “equivalent”. Further, in assay [1] (0.52-5 mg/kg i.p., 60 min before formalin), the “paw licking, acute and inflammatory phase” value was “dose-dependent reduction”. Moreover, the “Active at (flat phase II)” value in assay [1] (mouse formalin assay of inflammatory pain) is given as 5 mg/kg (“flat phase II”). For the same substance, the “activity in pharmaco-resistant seizure model” value in the assay with 6 Hz limbic seizures (4 mg/kg) is “active”. Moreover, in the assay with 6 Hz limbic seizures (4 mg/kg, i.p., 1 h, model not printed at tables, ED50s of same analogs called 6 Hz model), the “% Protection at 1 hour” value turned out to be 100%. Also, in the assay on 6 Hz limbic seizures (4 mg/kg, i.p., 2 h), the “% Protection at 2 hours” value came to 100%. Besides, the “% Protection at 4 hours” value in the assay with 6 Hz limbic seizures (4 mg/kg, i.p., 4 h) was 0%. Moreover, the “potency and efficacy compared with native peptide” value in the assay with 6 Hz limbic seizures (6 Hz (32 mA) test) is “more potent and more efficacious”. In addition, the “ED50 in the 6 Hz model” value in the assay on 6 Hz limbic seizures (i.p.) turned out to be 0.8 mg/kg. The “dose in parentheses in Table 14 (ED50)” value in the assay with 6 Hz limbic seizures (i.p., not labelled in table) amounted to 0.8 mg/kg. The “ED50 following i.c.v. administration” value in the assay on 6 Hz limbic seizures (intracerebroventricular, 6 Hz (32 mA) test, FIG. 22) amounted to 0.07 nmol. Further, the “anticonvulsant activity following subcutaneous administration” value in the assay with 6 Hz limbic seizures (s.c., 32 mA, 6 Hz, 60 min after injection) is on record as “preserved; also recorded: retained”. In addition, in assay [2], the “protection in s.c. Metrazol seizure test” value worked out at 25%. In assay [3], the “activity in maximal electroshock seizure test” value is “completely inactive”. Moreover, the “blocking sound-induced seizures” value with sound-induced seizures (4 mg/kg i.p., one hour after administration) is “effective”. In addition, in the assay on sound-induced seizures (4 mg/kg, i.p.), the “duration of anticonvulsant effect” value is “between two and four hours”; the “onset of anticonvulsant effect” value is given as ≤ 30 min. For the same substance, in the assay on sound-induced seizures (given i.p., refers to Example 2), the “anticonvulsant ED50 (approximate)” value was ~3 mg/kg. Further, the “median effective dose ED50 (95% confidence intervals)” value with sound-induced seizures (i.p., at time to peak effect 1 h, Probit analysis) was 3.2 (2.3−6.1) mg/kg.

For the origin of these results see US20180340012A1, “METHODS AND CO[…] TO IMPROVING PROPERTIES OF PHARMACOLOGICAL AGENTS TARGETING NERVOUS SYSTEM” (University of Utah Research Foundation, priority 2006, published 2018).
